Measured values from patent US20020137929A1, “1 - (3-heterocyclylphenyl) isothiourea, -isourea, -guanidine and -amidine herbicidal agents” (Intellectual Property Department, BASF Aktiengesellschaft, priority 1998, published 2002).

How the values were obtained:
[1] = test system: GLXMAW (Soybean, Williams); assay: Preemergence herbicidal evaluation; assay type: in vivo, Glycine max, (L.) Merr. cv Williams; conditions: rated 4-5 weeks after treatment
Summary of the method: (§1)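 Rating at 4–5 wk post-spray on a 0–9 visual scale vs control. Application: aqueous acetone, ~0.0156–0.500 kg/ha, to soil surface after seeding, preemergence.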

[2] = test system: IPOHE (Morningglory, Ivyleaf); assay: Postemergence herbicidal evaluation; assay type: in vivo, Ipomoea hederacea; conditions: postemergence
Summary of the method: (§2)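 Rate range approx. 0.0156–0.500 kg/ha. Foliar application at 40 psi to ~2-week seedlings; surfactant 0.5% TWEEN 20 in 50/50 acetone/water. Evaluation 4–5 wk post-treatment by 0–9 visual injury score, means of replicate tests.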

MOOVA (Monochoria) = assay: Postemergence weed control under flooded paddy conditions; assay type: in vivo, Monochoria vaginalis; conditions: postemergence weeds, 3-4 weeks after treatment
Summary of the method: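 Weeds 3 to 5 cm tall and rice seedlings at the 1.5 to 2.5 leaf stage were flooded, with water held 1.5 to 3 cm above the soil. Compounds in 50/50 v/v aqueous/acetone went into the flood water at about 0.0313 to 0.500 kg/ha. Visual 0-9 ratings versus control were made 3 to 4 weeks later.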

ECHCG (Barnyardgrass) = assay: Preemergence herbicidal evaluation; assay type: in vivo, Echinochloa crus-galli; conditions: rated 4-5 weeks after treatment
Summary of the method: as §1

[3] = test system: CHEAL (Lambsquarters, Common); assay: Postemergence herbicidal evaluation; assay type: in vivo, Chenopodium album; conditions: postemergence
Summary of the method: as §2

GALAP (Galium) = assay: Preemergence herbicidal evaluation; assay type: in vivo, Galium aparine; conditions: rated 4-5 weeks after treatment
Summary of the method: as §1

| SMILES | GLXMAW preemergence herbicidal rating ([1]; rate 0.0156 kg/ha) | GLXMAW preemergence herbicidal rating ([1]; rate 0.0313 kg/ha) | GLXMAW preemergence herbicidal rating ([1]; rate 0.0625 kg/ha) | GLXMAW preemergence herbicidal rating ([1]; rate 0.1250 kg/ha) | GLXMAW preemergence herbicidal rating ([1]; rate 0.2500 kg/ha) | IPOHE herbicidal rating ([2]; rate 0.0156 kg/ha) | IPOHE herbicidal rating ([2]; rate 0.0313 kg/ha) | IPOHE herbicidal rating ([2]; rate 0.0625 kg/ha) | IPOHE herbicidal rating ([2]; rate 0.1250 kg/ha) | Herbicidal rating MOOVA (MOOVA (Monochoria); rate 0.0313 kg/ha) | Herbicidal rating MOOVA (MOOVA (Monochoria); rate 0.0625 kg/ha) | Herbicidal rating MOOVA (MOOVA (Monochoria); rate 0.1250 kg/ha) | Herbicidal rating MOOVA (MOOVA (Monochoria); rate 0.2500 kg/ha) | ECHCG preemergence herbicidal rating (ECHCG (Barnyardgrass); rate 0.0156 kg/ha) | ECHCG preemergence herbicidal rating (ECHCG (Barnyardgrass); rate 0.0313 kg/ha) | ECHCG preemergence herbicidal rating (ECHCG (Barnyardgrass); rate 0.0625 kg/ha) | ECHCG preemergence herbicidal rating (ECHCG (Barnyardgrass); rate 0.1250 kg/ha) | ECHCG preemergence herbicidal rating (ECHCG (Barnyardgrass); rate 0.2500 kg/ha) | CHEAL herbicidal rating ([3]; rate 0.0156 kg/ha) | CHEAL herbicidal rating ([3]; rate 0.0313 kg/ha) | also measured |
| --- | --- | --- | --- | --- | --- | --- | --- | --- | --- | --- | --- | --- | --- | --- | --- | --- | --- | --- | --- | --- | --- |
| CCC1SC(=Nc2cc(-n3c(=O)cc(C(F)(F)F)n(C)c3=O)c(F)cc2Cl)N(C)C1=O (stereo not drawn) [Compound 10] | 2.0 | 2.3 | 3.7 | 6.7 | 7.0 | 3.0 | 7.0 | 9.0 | 8.0 | 9.0 | 9.0 | 9.0 | 9.0 | 2.0 | 4.0 | 7.0 | 9.0 | 9.0 | 7.0 | 7.0 | CHEAL herbicidal rating ([3]; rate 0.0625 kg/ha): 9.0; CHEAL herbicidal rating ([3]; rate 0.1250 kg/ha): 9.0; GALAP preemergence herbicidal rating (GALAP (Galium); rate 0.0156 kg/ha): 0.5; GALAP preemergence herbicidal rating (GALAP (Galium); rate 0.0313 kg/ha): 2.0; GALAP preemergence herbicidal rating (GALAP (Galium); rate 0.0625 kg/ha): 4.5; GALAP preemergence herbicidal rating (GALAP (Galium); rate 0.1250 kg/ha): 9.0; GALAP preemergence herbicidal rating (GALAP (Galium); rate 0.2500 kg/ha): 9.0 |
| CCOC(=O)CN1C(=O)C(F)SC1=Nc1cc(-n2c(=O)cc(C(F)(F)F)n(C)c2=O)c(F)cc1Cl (stereo not drawn) [Compound 11, Ethyl 2-{{2-chloro-5-[3,6-dihydro-3-methyl-2,6-dioxo-4-(trifluoromethyl)-1(2H)-pyrimidinyl]-4-fluorophenyl}imino}-5-fluoro-4-oxo-3-thiazolidineacetate] | 1.5 | 1.5 | 3.5 | 6.0 | 8.0 | 9.0 | 9.0 | 9.0 | 9.0 | 0.0 | 1.0 | 4.0 | 7.0 | 0.0 | 0.0 | 0.0 | 3.5 | 7.0 | 7.0 | 9.0 | CHEAL herbicidal rating ([3]; rate 0.0625 kg/ha): 9.0; CHEAL herbicidal rating ([3]; rate 0.1250 kg/ha): 9.0; GALAP preemergence herbicidal rating (GALAP (Galium); rate 0.0156 kg/ha): 0.0; GALAP preemergence herbicidal rating (GALAP (Galium); rate 0.0313 kg/ha): 0.0; GALAP preemergence herbicidal rating (GALAP (Galium); rate 0.0625 kg/ha): 0.0; GALAP preemergence herbicidal rating (GALAP (Galium); rate 0.1250 kg/ha): 0.0; GALAP preemergence herbicidal rating (GALAP (Galium); rate 0.2500 kg/ha): 9.0 |
| CCOC(=O)CN1C(=O)C(C)SC1=Nc1cc(-n2c(=O)cc(C(F)(F)F)n(C)c2=O)c(F)cc1Cl (stereo not drawn) [Compound 12] | 1.5 | 2.0 | 3.5 | 6.5 | 9.0 | 9.0 | 9.0 | 9.0 | 9.0 | 9.0 | 9.0 | 9.0 | 9.0 | 2.0 | 5.0 | 6.0 | 9.0 | 9.0 | 9.0 | 9.0 | CHEAL herbicidal rating ([3]; rate 0.0625 kg/ha): 9.0; CHEAL herbicidal rating ([3]; rate 0.1250 kg/ha): 9.0; GALAP preemergence herbicidal rating (GALAP (Galium); rate 0.0156 kg/ha): 0.0; GALAP preemergence herbicidal rating (GALAP (Galium); rate 0.0313 kg/ha): 0.0; GALAP preemergence herbicidal rating (GALAP (Galium); rate 0.0625 kg/ha): 9.0; GALAP preemergence herbicidal rating (GALAP (Galium); rate 0.1250 kg/ha): 9.0; GALAP preemergence herbicidal rating (GALAP (Galium); rate 0.2500 kg/ha): 9.0 |
| CCOC(=O)CN1C(=O)C(CC)SC1=Nc1cc(-n2c(=O)cc(C(F)(F)F)n(C)c2=O)c(F)cc1Cl (stereo not drawn) [Compound 13, Ethyl 2-{{2-chloro-5-[3,6-dihydro-3-methyl-2,6-dioxo-4-(trifluoromethyl)-1(2H)-pyrimidinyl]-4-fluorophenyl}imino}-5-ethyl-4-oxo-3-thiazolidineacetate] | 0.0 | 0.0 | 1.0 | 2.0 | 4.0 | 9.0 | 9.0 | 9.0 | 9.0 | 9.0 | 9.0 | 9.0 | 9.0 | 0.0 | 0.0 | 1.0 | 7.0 | 8.0 | 9.0 | 8.0 | CHEAL herbicidal rating ([3]; rate 0.0625 kg/ha): 9.0; CHEAL herbicidal rating ([3]; rate 0.1250 kg/ha): 9.0; GALAP preemergence herbicidal rating (GALAP (Galium); rate 0.0156 kg/ha): 0.0; GALAP preemergence herbicidal rating (GALAP (Galium); rate 0.0313 kg/ha): 0.0; GALAP preemergence herbicidal rating (GALAP (Galium); rate 0.0625 kg/ha): 0.0; GALAP preemergence herbicidal rating (GALAP (Galium); rate 0.1250 kg/ha): 0.0; GALAP preemergence herbicidal rating (GALAP (Galium); rate 0.2500 kg/ha): 0.0 |
| COC(=O)CN1C(=O)CSC1=Nc1cc(-n2c(=O)cc(C(F)(F)F)n(C)c2=O)c(F)cc1Cl [Compound 17, Methyl 2-{{2-chloro-5-[3,6-dihydro-3-methyl-2,6-dioxo-4-(trifluoromethyl)-1(2H)-pyrimidinyl]-4-fluorophenyl}imino}-4-oxo-3-thiazolidineacetate] | 0.0 | 0.0 | 0.3 | 0.3 | 3.3 | 7.0 | 8.5 | 9.0 | 9.0 | 9.0 | 9.0 | 9.0 | 9.0 | 0.5 | 0.7 | 1.0 | 0.7 | 4.3 | 2.5 | 3.0 | GLXMAW preemergence herbicidal rating ([1]; rate 0.5000 kg/ha): 6.5; ECHCG preemergence herbicidal rating (ECHCG (Barnyardgrass); rate 0.5000 kg/ha): 9.0; CHEAL herbicidal rating ([3]; rate 0.0625 kg/ha): 4.0; CHEAL herbicidal rating ([3]; rate 0.1250 kg/ha): 8.0; GALAP preemergence herbicidal rating (GALAP (Galium); rate 0.0156 kg/ha): 0.0; GALAP preemergence herbicidal rating (GALAP (Galium); rate 0.0313 kg/ha): 0.0; GALAP preemergence herbicidal rating (GALAP (Galium); rate 0.0625 kg/ha): 0.0; GALAP preemergence herbicidal rating (GALAP (Galium); rate 0.1250 kg/ha): 1.0; GALAP preemergence herbicidal rating (GALAP (Galium); rate 0.2500 kg/ha): 9.0; GALAP preemergence herbicidal rating (GALAP (Galium); rate 0.5000 kg/ha): 9.0 |
